# Experiments:
# E. coli = assay: Membrane permeabilization with sodium hexametaphosphate (H33342 uptake); assay type: cell-based, Escherichia coli; conditions: H33342 agar with sodium hexametaphosphate
# Description: (§1) Uptake of free H33342 by bacteria: The uptake of free H33342 was investigated by repeating the experiment as above but replacing liposomal H33342 with free H33342 dye (final concentration, 160 nM). Sodium hexametaphosphate (305553, Sigma-Aldrich) was added to a concentration of up to 0.3% for membrane permeabilization experiments.
# S. pyogenes = assay: as above; assay type: cell-based, Streptococcus pyogenes; conditions: at 0.3%
# Description: as §1
# gram-positive bacteria = assay: Uptake of free H33342 by bacteria on BHI agar; assay type: cell-based; conditions: 160 nM, overnight
# Description: as §1
# gram-negative bacteria = assay: Uptake of free H33342 by bacteria on BHI agar; assay type: cell-based
# Description: as §1
# a variety of bacteria = assay: Culturing bacteria on BHI agar with free H33342; assay type: cell-based; conditions: 160 nM
# Description: as §1
Structure (SMILES),increase of colony fluorescence (E. coli) [%],lethality to bacterium (S. pyogenes),colony association with / uptake of free dye (gram-positive bacteria),uptake of dye (gram-negative bacteria),lethality to bacteria (a variety of bacteria)
O=P1([O-])OP(=O)([O-])OP(=O)([O-])OP(=O)([O-])OP(=O)([O-])OP(=O)([O-])O1.[Na+].[Na+].[Na+].[Na+].[Na+].[Na+] [sodium hexametaphosphate],80,lethal,,,
"CCOc1ccc(-c2nc3ccc(-c4nc5ccc(N6CCN(C)CC6)cc5[nH]4)cc3[nH]2)cc1 [H33342, Hoechst 33342]",,,fluoresce blue,not taken up,non-lethal

# — patent US11667946B2, “Detection of beta-hemolytic pathogens” (TEMASEK LIFE SCIENCES LABORATORY LIMITED, priority 2016, dated 2023)
